# “Also recorded” adds a separate entry of the source.
# Key:
# mTBI animals = assay: Lower limb spasticity (velocity dependent ankle torque and triceps EMG) after weight drop closed head injury (mTBI); format: in vivo, rats; settings: 50 mg/kg s.c. 2x per day for 2 weeks, PO Wk-1 and PO Wk-3
# Method: Ankle torque, displacement and EMGs are simultaneously recorded and time-locked to onset of dorsiflexion. Velocity dependent ankle torque was tested between 49 and 612 degrees/sec dorsiflexion in awake rats.
# These experiments were performed to assess the influence of treatment using NaHBED following mTBI. Fifteen mTBIs were performed as described above, using 450×1.25m weight drop closed head injury. The animals were randomly divided into two groups, control (n=5) and iron chelator (IC) NaHBED treatment (n=10). Beginning on the first day following injury, NaHBED was delivered by subcutaneous injection of 50 mg/kg, 2× per day, for a total dosage of 100 mg/kg/body weight/day. NaHBED 60 mg/ml, was dissolved in deionized, sterilized, iron-free water. The IC was administered every day for 2 weeks. The control animals received equal volume subcutaneous injections of saline.
# Spasticity: The influence of treatment was tested by analysis of lower limb spasticity (velocity dependent ankle torque and triceps EMG), in mTBI treated and non-treated mTBI animals. A normal ICT group (Normal HBED) was also included as a treatment control.
# [1] = system: non-iron-loaded beagle dogs; assay: 28-day intravenous repeat dose toxicity study, non-iron-loaded (normal) dogs; format: in vivo
# Method: (§1) 28-Day Intravenous Repeat Dose Toxicity Study of NaHBED in Male and Female Dogs SRI Study.
# (§2) Male and female beagle dogs were either infused biweekly with iron dextran to a level of approximately 500 mg iron/kg body weight or held without iron loading during the 2-month pretreatment phase. All dogs were held an additional 2 ½ months before beginning dose administration with N,N′-di(2-hydroxybenzypethylenediarnine-N,N′-diacetic acid, monosodium salt (NaHBED). Groups of 4 male and 4 female dogs that had been iron-loaded received NaHBED at 21.46, 64.38, or 128.76 mg/kg daily in 15-35 min intravenous (i.v.) infusions for 28 consecutive days; a non-iron-loaded group containing the same number of dogs of each sex received 21.46 mg NaHBED/kg/day i.v. during the same period. Vehicle-only control groups of iron-loaded and non-iron-loaded dogs (3 males and 3 females per group) were subjected to the same regimen concurrently. […] During the treatment period, clinical observations on the animals were made daily after dosing. Body weights were measured before the start of dosing with NaHBED, weekly during the 28-day treatment period, and at study termination when recovery animals were sacrificed; food consumption was measured weekly during the treatment period. Hematology and clinical chemistry parameters, including serum iron parameters, were assessed at Weeks-1, 2, 4, and 8. Urinalysis was performed on bladder urine samples at necropsy. Plasma samples were collected for drug level analysis at selected timepoints after dosing on the first day and 28 days later. Routine ophthalmologic examinations and cardiovascular evaluations were conducted during the week prior to dose administration and during the third and fourth (eye exams) or fourth (cardiology exams) weeks of NaHBED administration. Organ weights were measured at necropsy and organ-to-body and -brain ratios determined. Gross and microscopic examination of a complete set of tissues was performed on iron-loaded high dose (128.76 mg/kg/day) and control groups and on non-iron-loaded low dose (21.46 mg/kg/day) and control groups. Specimens from liver, heart, spleen, lung, kidney, and eye were taken from each dog at necropsy for subsequent tissue analyses of iron and zinc content.
# [2] = Toxicokinetics (plasma drug level analysis) in the 28-day i.v. dog study; format: in vivo, beagle dogs
# Method: Male and female beagle dogs were either infused biweekly with iron dextran to a level of approximately 500 mg iron/kg body weight or held without iron loading during the 2-month pretreatment phase. […] During the treatment period, clinical observations on the animals were made daily after dosing. Body weights were measured before the start of dosing with NaHBED, weekly during the 28-day treatment period, and at study termination when recovery animals were sacrificed; food consumption was measured weekly during the treatment period. Hematology and clinical chemistry parameters, including serum iron parameters, were assessed at Weeks-1, 2, 4, and 8. Urinalysis was performed on bladder urine samples at necropsy. Plasma samples were collected for drug level analysis at selected timepoints after dosing on the first day and 28 days later. Routine ophthalmologic examinations and cardiovascular evaluations were conducted during the week prior to dose administration and during the third and fourth (eye exams) or fourth (cardiology exams) weeks of NaHBED administration. Organ weights were measured at necropsy and organ-to-body and -brain ratios determined. […] Specimens from liver, heart, spleen, lung, kidney, and eye were taken from each dog at necropsy for subsequent tissue analyses of iron and zinc content.
# iron-loaded beagle dogs = assay: 28-day intravenous repeat dose toxicity study, iron-loaded dogs; format: in vivo
# Method: as §1, §2
# [3] = non-iron-loaded dogs, 21.46 mg/kg/day i.v., at necropsy
# [4] = non-iron-loaded dogs, 21.46 mg/kg/day i.v., statistically significant for males on Day 15
# [5] = repeated daily i.v. doses, iron-loaded beagle dogs, 28 days
smiles,measurement,setting,value
O=C([O-])CN(CCN(CC(=O)O)Cc1ccccc1O)Cc1ccccc1O.[Na+] [NaHBED],amplitudes of time locked EMGs,mTBI animals,significantly lower
same,amplitudes of velocity dependent ankle torques,mTBI animals,significantly lower
same,mobilization and excretion of iron and zinc,"[1]; non-iron-loaded dogs, 21.46 mg/kg/day dose level, monosodium salt, 21.46 mg/kg/day",induced mobilization and enhanced excretion; also recorded: clear indication
same,other effects,"[1]; non-iron-loaded dogs, 21.46 mg/kg/day i.v., 28 days",No other effects
same,iron content of kidneys,[1]; [3],dramatic decrease
same,zinc content of kidneys,[1]; [3],dramatic decrease
same,urine coloration,"[1]; non-iron-loaded dogs, 21.46 mg/kg/day i.v., occasionally",slightly red coloration
same,iron-to-transferrin ratio,[1]; [4],apparent elevation
same,serum iron,[1]; [4],apparent elevation
same,"iron and zinc in kidneys, females","[1]; non-iron-loaded female dogs, 21.46 mg/kg/day i.v., at necropsy",virtual absence of either ion
same,"total body clearance, Day 28 relative to Day 1","[2]; daily i.v., Day 28 vs Day 1",correspondingly elevated
same,"volume of distribution, Day 28 relative to Day 1","[2]; daily i.v., Day 28 vs Day 1",correspondingly elevated
same,"toxicokinetic parameters, iron-loaded versus non-iron-loaded dogs",[2]; same dose level,similar
same,histopathologic findings clearly associated with administration,iron-loaded beagle dogs; daily i.v. for 28 days,no histopathologic findings
same,"effects on body weight and food consumption; ophthalmologic, cardiovascular, hematology, clinical chemistry and urinalysis parameters; organ weights or weight ratios","iron-loaded beagle dogs; iron-loaded dogs, daily i.v. for 28 days",no distinguishable effects
same,observable adverse effects,"iron-loaded beagle dogs; iron-loaded dogs, high dose level (128.76 mg/kg/day i.v., 28 days)",emesis and/or diarrhea
same,mean kidney iron content,"iron-loaded beagle dogs; iron-loaded male groups, at necropsy",statistically lower
same,kidney zinc content,"iron-loaded beagle dogs; iron-loaded, high dose level group, at necropsy",statistically lower
same,urine coloration,"iron-loaded beagle dogs; majority of dogs at all dose levels, most of the treatment period",Reddish urine
same,maximum tolerated dose (MTD) level,iron-loaded beagle dogs; [5],> 128.76 mg/kg/day
same,no observable adverse effect level (NOAEL),iron-loaded beagle dogs; [5],64.38 mg/kg/day
